These results are taken from patent US9050328B2 (Jiangsu Hansoh Pharmaceutical Group Co., Ltd., priority 2010, dated 2015).

Structures can show the parent of a compound that is named as a salt. Where two headings read alike, the source gives them in different places.

A short description of data set [1]: In vitro dissolution rate test in phosphate buffer (1000 ml, 50 turns per minute, HPLC). The class given is physicochemical.
Assay in data set [2]: as above
The class given is physicochemical. Further details: unit not given here. How it is done:
PVP was used as the carrier material. The solid dispersion is prepared by solvent method (drug:carrier=1:10), and the method to evaluate solubility in vitro is given as follows:
Using this method, 5 ml of the solution was taken at 5 min, 10 min, 15 min, 20 min, 30 min, 45 min, and 60 min (5 ml dissolution medium was supplemented after the 5 ml solution was taken out) and filtered. The filtrate was taken as the test solution and checked for purity using HPLC.
(2) A solid dispersion which contains the drug substance 5 mg, according to the method of dissolution rate test and 1000 ml at pH 6.8 phosphate buffer was used as dissolution medium, with a rotating speed of 50 turns per minute. Using this method, 5 ml of the solution was taken at 5 min, 10 min, 15 min, 20 min, 30 min, 45 min, and 60 min (5 ml dissolution medium was supplemented after the 5 ml solution was taken out) and filtered. The filtrate was taken as the test solution and checked for purity using HPLC.
The dissolution rate of examples 1-11 were evaluated by the evaluation system mentioned above.
The dissolution rate was evaluated in pH 4.5 phosphate buffer:
The dissolution rate was evaluated in pH6.8 phosphate buffer: […]

The conditions of data set [3]: drugs administrated alone; cited from earlier work.
For data set [4] the following is noted: cited from earlier work.

As for `CC(=O)Oc1cc2c(s1)CCN(C(C(=O)C1CC1)c1ccccc1F)C2` (stereo not drawn) [prasugrel, 5-(2-cyclopropyl-1-(2-fluorophenyl)-2-oxoethyl)-4,5,6,7-tetrahydrothieno[3,2-c]pyridin-2-yl acetate], the “dissolution rate after micronization only” value in data set [1] (pH4.5 and pH6.8, compared to prasugrel hydrochloride prepared by only micronization) is listed as “improved, but there is still a gap”. Moreover, the “solubility after micronization only” value in data set [1] (pH 6.8, compared to prasugrel hydrochloride) is reported as “poorer than that of prasugrel hydrochloride”.

With `CC(=O)Oc1cc2c(s1)CCN(C(C(=O)C1CC1)c1ccccc1F)C2` (stereo not drawn) [Prasugrel hydrochloride, prasugrel hydrochloride], the dissolution rate in data set [2] (pH 4.5 phosphate buffer, 0 min) stood at 0; in data set [2] (pH 4.5 phosphate buffer, 5 min), 16.71; in data set [2] (pH 4.5 phosphate buffer, 10 min), 26.66; in data set [2] (pH 4.5 phosphate buffer, 15 min), 32.45; in data set [2] (pH 4.5 phosphate buffer, 20 min) it was 36.78; in data set [2] (pH 4.5 phosphate buffer, 30 min), 43.42. Also, the dissolution rate worked out at 0 in data set [2] (pH 6.8 phosphate buffer, 0 min); 13.69 in data set [2] (pH 6.8 phosphate buffer, 5 min); 21.03 in data set [2] (pH 6.8 phosphate buffer, 15 min); 23.99 in data set [2] (pH 6.8 phosphate buffer, 30 min); 25.13 in data set [2] (pH 6.8 phosphate buffer, 45 min); 25.62 in data set [2] (pH 6.8 phosphate buffer, 60 min). The “bioavailability, hydrochloride vs free base form” value in data set [3] is listed as “about equal”. The solubility entry in data set [4] (pH 1-4) was “slightly soluble”; in data set [4] (pH 5) it was “very slightly soluble”; in data set [4] (pH 6-7), “insoluble”.
